# Reference: PMC5428509, “Irreversible inhibition of BTK kinase by a novel highly selective inhibitor CHMFL-BTK-11 suppresses inflammatory response in rheumatoid arthritis model” (Scientific Reports, 2017)
# Columns and labels:
# PKNB(M.tuberculosis) = PKNB(M.tuberculosis) (Mycobacterium tuberculosis, UniProt P9WI81); assay: biochemical; set-up: KinomeScan competition binding panel (DiscoveRx), percent of control at 1 uM; settings: read-out: Percent Control
# PFPK5(P.falciparum) = target: T1, PFPK5(P.falciparum) (Plasmodium falciparum, UniProt P61075); assay: biochemical; set-up: KinomeScan competition binding panel (DiscoveRx), percent of control at 1 uM; settings: read-out: Percent Control
# T1 construct: gene CRK2
# [1] = target: T2, BTK kinase (Bruton's tyrosine kinase) (Homo sapiens, UniProt Q06187); assay: ADP-Glo biochemical kinase assay; supported by Y551 autophosphorylation of wt vs C481S BTK and KinomeScan binding
# T2 construct: purified BTK kinase
# T2 sequence (Q06187 2-659): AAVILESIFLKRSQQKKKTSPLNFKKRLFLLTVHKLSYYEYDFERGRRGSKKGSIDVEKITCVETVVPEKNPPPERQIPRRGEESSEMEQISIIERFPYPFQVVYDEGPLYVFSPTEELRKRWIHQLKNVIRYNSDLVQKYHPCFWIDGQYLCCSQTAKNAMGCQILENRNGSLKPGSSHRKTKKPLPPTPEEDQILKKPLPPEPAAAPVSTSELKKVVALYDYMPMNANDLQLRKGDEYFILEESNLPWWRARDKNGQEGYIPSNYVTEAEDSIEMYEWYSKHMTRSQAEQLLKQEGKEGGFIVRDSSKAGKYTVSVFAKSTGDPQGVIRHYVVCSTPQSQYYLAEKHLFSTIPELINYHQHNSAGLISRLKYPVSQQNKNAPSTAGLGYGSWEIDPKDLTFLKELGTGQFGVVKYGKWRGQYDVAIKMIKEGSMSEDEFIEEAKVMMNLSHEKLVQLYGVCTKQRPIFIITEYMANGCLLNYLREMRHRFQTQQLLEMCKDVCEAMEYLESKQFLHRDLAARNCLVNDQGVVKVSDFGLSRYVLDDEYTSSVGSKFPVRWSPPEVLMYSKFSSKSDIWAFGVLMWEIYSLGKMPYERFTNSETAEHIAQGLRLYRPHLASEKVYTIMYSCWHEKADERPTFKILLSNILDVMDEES
# DYRK2 = DYRK2 (Homo sapiens, UniProt Q92630); assay: biochemical; set-up: KinomeScan competition binding panel (DiscoveRx), percent of control at 1 uM; settings: read-out: Percent Control
# Description: (§1) In order to further confirm the binding mode, we then tested the compounds in the BTK wild-type (wt) and BTK C481S mutant with immunoblotting by looking at the BTK Y551 auto-phosphorylation. […] In addition, a covalent bond was preferred to form between the […] acrylamide and Cys-481 near the hinge binding area, which further confirmed its irreversible binding mode (Fig. 1d). We next investigated CHMFL-BTK-11′s selectivity profile in 456 kinases/mutants with KinomeScan^TM technology.
# PRKG2 = PRKG2 (Homo sapiens, UniProt Q13237); assay: biochemical; set-up: KinomeScan competition binding panel (DiscoveRx), percent of control at 1 uM; settings: read-out: Percent Control
# PRKG2, sequence (Q13237 whole entry): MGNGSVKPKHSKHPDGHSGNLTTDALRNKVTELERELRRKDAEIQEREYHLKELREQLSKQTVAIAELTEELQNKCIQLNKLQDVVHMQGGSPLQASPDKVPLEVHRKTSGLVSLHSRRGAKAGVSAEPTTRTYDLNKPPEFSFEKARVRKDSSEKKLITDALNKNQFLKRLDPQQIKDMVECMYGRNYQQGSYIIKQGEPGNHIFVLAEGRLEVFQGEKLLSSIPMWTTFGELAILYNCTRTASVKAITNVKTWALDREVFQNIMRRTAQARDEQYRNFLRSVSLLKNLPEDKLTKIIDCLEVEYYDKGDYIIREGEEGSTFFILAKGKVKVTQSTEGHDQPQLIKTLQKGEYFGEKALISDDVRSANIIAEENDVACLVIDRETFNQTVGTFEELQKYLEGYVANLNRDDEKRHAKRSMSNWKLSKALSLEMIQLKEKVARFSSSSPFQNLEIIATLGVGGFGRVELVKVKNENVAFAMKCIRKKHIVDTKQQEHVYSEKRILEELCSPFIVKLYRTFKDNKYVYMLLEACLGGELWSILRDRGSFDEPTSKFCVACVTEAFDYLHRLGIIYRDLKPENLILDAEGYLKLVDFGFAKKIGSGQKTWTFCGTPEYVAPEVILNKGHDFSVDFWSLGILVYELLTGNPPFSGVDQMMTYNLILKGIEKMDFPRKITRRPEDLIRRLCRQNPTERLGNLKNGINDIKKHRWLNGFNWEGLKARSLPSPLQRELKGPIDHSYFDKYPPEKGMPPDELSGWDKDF
# Description: as §1
# MLK2 = target: T3, MLK2 (Homo sapiens, UniProt Q02779); assay: biochemical; set-up: KinomeScan competition binding panel (DiscoveRx), percent of control at 1 uM; settings: read-out: Percent Control
# T3 construct: gene MAP3K10
# T3 sequence (Q02779 whole entry): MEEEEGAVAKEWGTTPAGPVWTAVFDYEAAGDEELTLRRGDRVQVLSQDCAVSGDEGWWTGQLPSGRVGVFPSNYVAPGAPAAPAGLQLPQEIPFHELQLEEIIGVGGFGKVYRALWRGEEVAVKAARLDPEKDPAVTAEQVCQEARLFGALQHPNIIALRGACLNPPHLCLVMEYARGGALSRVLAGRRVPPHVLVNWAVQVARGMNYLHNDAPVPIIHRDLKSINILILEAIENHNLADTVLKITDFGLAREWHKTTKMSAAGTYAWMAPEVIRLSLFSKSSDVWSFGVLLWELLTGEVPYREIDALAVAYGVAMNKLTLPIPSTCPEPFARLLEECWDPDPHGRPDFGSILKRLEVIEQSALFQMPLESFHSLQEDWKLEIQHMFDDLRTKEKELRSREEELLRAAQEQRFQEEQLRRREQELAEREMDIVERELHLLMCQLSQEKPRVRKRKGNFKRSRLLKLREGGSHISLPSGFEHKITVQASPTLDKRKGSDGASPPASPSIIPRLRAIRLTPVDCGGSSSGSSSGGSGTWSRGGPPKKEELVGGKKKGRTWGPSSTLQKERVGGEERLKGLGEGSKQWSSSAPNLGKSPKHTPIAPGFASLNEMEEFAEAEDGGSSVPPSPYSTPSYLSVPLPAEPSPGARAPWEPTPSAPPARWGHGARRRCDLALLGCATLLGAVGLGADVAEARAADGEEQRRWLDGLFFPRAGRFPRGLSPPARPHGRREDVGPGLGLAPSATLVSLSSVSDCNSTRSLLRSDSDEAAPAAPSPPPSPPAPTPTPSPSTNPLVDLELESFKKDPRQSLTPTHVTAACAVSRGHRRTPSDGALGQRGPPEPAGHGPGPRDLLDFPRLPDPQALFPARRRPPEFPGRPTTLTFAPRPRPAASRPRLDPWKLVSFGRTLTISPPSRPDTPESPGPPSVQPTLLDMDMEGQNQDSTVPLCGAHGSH
# Description: as §1
# CSNK1G2 = CSNK1G2 (Homo sapiens, UniProt P78368); assay: biochemical; set-up: KinomeScan competition binding panel (DiscoveRx), percent of control at 1 uM; settings: read-out: Percent Control
# Description: as §1
# MET(Y1235D) = MET(Y1235D) (Homo sapiens, UniProt P08581, Y1235D); assay: biochemical; set-up: KinomeScan competition binding panel (DiscoveRx), percent of control at 1 uM; settings: read-out: Percent Control
# Description: as §1
# GCN2(Kin.Dom.2,S808G) = target: T4, GCN2(Kin.Dom.2,S808G) (Homo sapiens, UniProt Q9P2K8, S808G); assay: biochemical; set-up: KinomeScan competition binding panel (DiscoveRx), percent of control at 1 uM; settings: read-out: Percent Control
# T4 construct: gene EIF2AK4; Kin.Dom.2
# Description: as §1
# PRKCD = PRKCD (Homo sapiens, UniProt Q05655); assay: biochemical; set-up: KinomeScan competition binding panel (DiscoveRx), percent of control at 1 uM; settings: read-out: Percent Control
# Description: as §1
# ITK = ITK (Homo sapiens, UniProt Q08881); assay: biochemical; set-up: KinomeScan competition binding panel (DiscoveRx), percent of control at 1 uM; settings: read-out: Percent Control
# Description: as §1
# ERK8 = target: T5, ERK8 (Homo sapiens, UniProt Q8TD08); assay: biochemical; set-up: KinomeScan competition binding panel (DiscoveRx), percent of control at 1 uM; settings: read-out: Percent Control
# T5 construct: gene MAPK15
# Description: as §1
# MLCK = target: T6, MLCK (Homo sapiens, UniProt Q32MK0); assay: biochemical; set-up: KinomeScan competition binding panel (DiscoveRx), percent of control at 1 uM; settings: read-out: Percent Control
# T6 construct: gene MYLK3
# Description: as §1
# MEK3 = target: T7, MEK3 (Homo sapiens, UniProt P46734); assay: biochemical; set-up: KinomeScan competition binding panel (DiscoveRx), percent of control at 1 uM; settings: read-out: Percent Control
# T7 construct: gene MAP2K3
# Description: as §1
# MELK = MELK (Homo sapiens, UniProt Q14680); assay: biochemical; set-up: KinomeScan competition binding panel (DiscoveRx), percent of control at 1 uM; settings: read-out: Percent Control
# Description: as §1
# GAK = GAK (Homo sapiens, UniProt O14976); assay: biochemical; set-up: KinomeScan competition binding panel (DiscoveRx), percent of control at 1 uM; settings: read-out: Percent Control
# Description: as §1
# PDGFRA = PDGFRA (Homo sapiens, UniProt P16234); assay: biochemical; set-up: KinomeScan competition binding panel (DiscoveRx), percent of control at 1 uM; settings: read-out: Percent Control
# PDGFRA, sequence (P16234 whole entry): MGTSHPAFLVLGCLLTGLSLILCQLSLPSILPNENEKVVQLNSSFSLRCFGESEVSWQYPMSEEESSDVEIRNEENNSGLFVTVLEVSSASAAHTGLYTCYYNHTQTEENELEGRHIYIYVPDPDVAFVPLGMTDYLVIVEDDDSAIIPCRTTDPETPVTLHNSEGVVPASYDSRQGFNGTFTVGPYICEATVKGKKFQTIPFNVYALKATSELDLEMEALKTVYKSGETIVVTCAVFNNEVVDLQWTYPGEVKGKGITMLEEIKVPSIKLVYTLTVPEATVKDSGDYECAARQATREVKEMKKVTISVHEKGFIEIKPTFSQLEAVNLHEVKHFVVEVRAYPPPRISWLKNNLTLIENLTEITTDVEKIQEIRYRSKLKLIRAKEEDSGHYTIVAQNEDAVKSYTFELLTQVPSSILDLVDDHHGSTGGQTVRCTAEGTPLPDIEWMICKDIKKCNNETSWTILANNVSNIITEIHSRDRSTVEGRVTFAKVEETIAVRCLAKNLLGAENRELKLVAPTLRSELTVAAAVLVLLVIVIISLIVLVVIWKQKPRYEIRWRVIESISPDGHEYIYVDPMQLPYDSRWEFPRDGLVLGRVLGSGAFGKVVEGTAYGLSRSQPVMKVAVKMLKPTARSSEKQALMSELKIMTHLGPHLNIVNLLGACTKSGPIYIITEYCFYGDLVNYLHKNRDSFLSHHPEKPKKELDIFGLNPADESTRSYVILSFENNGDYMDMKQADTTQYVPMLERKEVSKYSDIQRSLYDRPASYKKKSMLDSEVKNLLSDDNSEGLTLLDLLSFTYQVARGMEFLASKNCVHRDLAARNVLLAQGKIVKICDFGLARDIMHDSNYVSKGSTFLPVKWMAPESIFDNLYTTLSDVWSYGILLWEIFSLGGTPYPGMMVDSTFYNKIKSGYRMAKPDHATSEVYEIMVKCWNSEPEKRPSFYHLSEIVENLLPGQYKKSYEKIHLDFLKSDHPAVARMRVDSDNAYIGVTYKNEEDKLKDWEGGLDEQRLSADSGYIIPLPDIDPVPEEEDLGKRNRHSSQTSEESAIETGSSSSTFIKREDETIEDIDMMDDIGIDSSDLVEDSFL
# Description: as §1
# [2] = target: T8, RSK3(Kin.Dom.2-C-terminal) (Homo sapiens, UniProt Q15349); assay: biochemical; set-up: KinomeScan competition binding panel (DiscoveRx), percent of control at 1 uM; settings: read-out: Percent Control
# T8 construct: gene RPS6KA2; Kin.Dom.2-C-terminal
# Description: as §1
# MST1R = MST1R (Homo sapiens, UniProt Q04912); assay: biochemical; set-up: KinomeScan competition binding panel (DiscoveRx), percent of control at 1 uM; settings: read-out: Percent Control
# Description: as §1
# CLK3 = CLK3 (Homo sapiens, UniProt P49761); assay: biochemical; set-up: KinomeScan competition binding panel (DiscoveRx), percent of control at 1 uM; settings: read-out: Percent Control
# Description: as §1
# NEK2 = NEK2 (Homo sapiens, UniProt P51955); assay: biochemical; set-up: KinomeScan competition binding panel (DiscoveRx), percent of control at 1 uM; settings: read-out: Percent Control
# NEK2, sequence (P51955 whole entry): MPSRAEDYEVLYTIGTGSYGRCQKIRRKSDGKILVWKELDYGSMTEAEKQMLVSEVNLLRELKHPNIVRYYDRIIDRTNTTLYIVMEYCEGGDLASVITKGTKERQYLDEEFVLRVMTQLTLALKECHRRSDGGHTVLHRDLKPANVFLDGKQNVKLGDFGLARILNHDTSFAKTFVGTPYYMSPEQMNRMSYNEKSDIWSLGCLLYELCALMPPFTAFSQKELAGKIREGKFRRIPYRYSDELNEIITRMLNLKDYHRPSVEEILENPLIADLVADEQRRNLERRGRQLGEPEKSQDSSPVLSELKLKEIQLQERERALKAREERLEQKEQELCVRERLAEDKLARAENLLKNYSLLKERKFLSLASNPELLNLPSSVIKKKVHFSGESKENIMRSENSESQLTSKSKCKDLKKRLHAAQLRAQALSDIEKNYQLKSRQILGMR
# Description: as §1
# ACVR2A = ACVR2A (Homo sapiens, UniProt P27037); assay: biochemical; set-up: KinomeScan competition binding panel (DiscoveRx), percent of control at 1 uM; settings: read-out: Percent Control
# ACVR2A, sequence (P27037 whole entry): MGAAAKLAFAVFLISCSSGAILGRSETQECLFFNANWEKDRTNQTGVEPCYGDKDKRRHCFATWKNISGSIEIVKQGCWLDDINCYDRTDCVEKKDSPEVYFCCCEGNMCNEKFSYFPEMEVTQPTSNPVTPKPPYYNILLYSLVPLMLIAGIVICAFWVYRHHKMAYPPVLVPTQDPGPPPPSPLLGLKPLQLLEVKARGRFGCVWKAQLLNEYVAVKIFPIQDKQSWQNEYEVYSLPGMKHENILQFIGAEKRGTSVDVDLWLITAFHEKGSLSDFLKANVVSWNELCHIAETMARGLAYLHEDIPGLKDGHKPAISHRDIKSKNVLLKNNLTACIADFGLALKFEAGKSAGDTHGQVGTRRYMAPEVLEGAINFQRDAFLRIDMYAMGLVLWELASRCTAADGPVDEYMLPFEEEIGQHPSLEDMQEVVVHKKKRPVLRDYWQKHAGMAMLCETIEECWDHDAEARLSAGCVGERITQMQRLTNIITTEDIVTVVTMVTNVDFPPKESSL
# Description: as §1
# PDPK1 = PDPK1 (Homo sapiens, UniProt O15530); assay: biochemical; set-up: KinomeScan competition binding panel (DiscoveRx), percent of control at 1 uM; settings: read-out: Percent Control
# Description: as §1
# JAK3 kinase = target: T9, JAK3 kinase (Homo sapiens, UniProt P52333); assay: ADP-Glo biochemical kinase assay; also strong binding in KinomeScan at […]
# T9 construct: purified JAK3 kinase protein
# PFCDPK1(P.falciparum) = target: T10, PFCDPK1(P.falciparum) (Plasmodium falciparum, UniProt P62344); assay: biochemical; set-up: KinomeScan competition binding panel (DiscoveRx), percent of control at 1 uM; settings: read-out: Percent Control
# T10 construct: gene CDPK1
# PKNB(M.tuberculosis), sequence (P9WI81 whole entry): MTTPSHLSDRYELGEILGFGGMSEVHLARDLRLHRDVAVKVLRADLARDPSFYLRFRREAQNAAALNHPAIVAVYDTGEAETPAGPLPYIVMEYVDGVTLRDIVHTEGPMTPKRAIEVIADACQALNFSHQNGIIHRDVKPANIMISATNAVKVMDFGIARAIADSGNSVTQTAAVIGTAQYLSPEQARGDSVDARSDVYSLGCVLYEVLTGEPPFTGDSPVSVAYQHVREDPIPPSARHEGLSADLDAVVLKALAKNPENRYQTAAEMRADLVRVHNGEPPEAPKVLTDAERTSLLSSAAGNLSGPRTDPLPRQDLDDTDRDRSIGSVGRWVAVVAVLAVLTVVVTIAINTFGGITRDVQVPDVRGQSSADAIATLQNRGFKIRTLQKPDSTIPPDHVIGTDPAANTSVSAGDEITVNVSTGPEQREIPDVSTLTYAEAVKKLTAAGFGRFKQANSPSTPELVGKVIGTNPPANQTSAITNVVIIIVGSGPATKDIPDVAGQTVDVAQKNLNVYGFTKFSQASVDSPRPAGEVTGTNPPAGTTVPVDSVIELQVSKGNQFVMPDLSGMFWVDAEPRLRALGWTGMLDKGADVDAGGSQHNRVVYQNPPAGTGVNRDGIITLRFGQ
compound,measurement,setting,value
C=CC(=O)Nc1cc(-n2c(=O)ccc3cnc4ccc(-n5cccn5)cc4c32)ccc1C [CHMFL-BTK-11],remaining binding at 1 µM,PKNB(M.tuberculosis),69%
same,remaining binding at 1 µM,PFPK5(P.falciparum),100%
same,IC50,[1],26.8 nM
same,remaining binding at 1 µM,DYRK2,55%
same,remaining binding at 1 µM,PRKG2,98%
same,remaining binding at 1 µM,MLK2,94%
same,remaining binding at 1 µM,CSNK1G2,100%
same,remaining binding at 1 µM,MET(Y1235D),100%
same,remaining binding at 1 µM,"GCN2(Kin.Dom.2,S808G)",100%
same,remaining binding at 1 µM,PRKCD,86%
same,remaining binding at 1 µM,ITK,100%
same,remaining binding at 1 µM,ERK8,99%
same,remaining binding at 1 µM,MLCK,98%
same,remaining binding at 1 µM,MEK3,86%
same,remaining binding at 1 µM,MELK,73%
same,remaining binding at 1 µM,GAK,100%
same,remaining binding at 1 µM,PDGFRA,100%
same,remaining binding at 1 µM,[2],100%
same,remaining binding at 1 µM,MST1R,98%
same,remaining binding at 1 µM,CLK3,100%
same,remaining binding at 1 µM,NEK2,100%
same,remaining binding at 1 µM,ACVR2A,100%
same,remaining binding at 1 µM,PDPK1,90%
same,IC50,JAK3 kinase,227 nM
same,remaining binding at 1 µM,PFCDPK1(P.falciparum),97%
